These results are taken from patent publication US12339285B2, “Method for estimating therapeutic efficacy” (Konica Minolta, Inc., priority 2017, dated 2025).

Like-named read-outs stand apart in the source and are kept apart here.

The assay deals with tumor tissue of lung cancer patients transplanted in SCID mice. The protocol: Further, tumor tissue was collected from each of the patients at the same time when drug administration was started, and a 2 mm-square piece of the tumor tissue was transplanted under the skin of SCID (Severe Combined ImminoDeficiency) mice (5 mice transplanted with tumor tissue derived from each patient were produced, and a total of 20 mice were produced). […] After 1 day and 100 days from the administration, tumor tissue was collected from the mice, and sample slides were prepared in the same manner as in Preparation for evaluation-1.

`COc1cc2ncnc(Nc3ccc(F)c(Cl)c3)c2cc1OCCCN1CCOCC1` [Gefitinib]: the “resistance in PDX mice” value (PDX mice of the patient B or D (so in the source), judged from tumor volume) is recorded as “resistance was not developed”. Besides, the volume of tumor entry (PDX mice transplanted with tumor tissue of patient F or H (drug resistant on day 100)) was “once reduced on day 100 after drug administration, but was increased thereafter” and the volume of tumor result (PDX mice transplanted with tumor tissue of the patient B or D (so in the source) with no drug resistance on day 100) is recorded as “gradually reduced”. The “resistance to Gefitinib in PDX mice” value (PDX mice transplanted with tumor tissue of patient F or H, judged from tumor volume) is reported as “resistance to Gefitinib was developed”.
